Reference: patent US7947466B2 (priority 2003, dated 2011)
“Also recorded” adds a separate entry of the source. Read-outs that look alike come from different tables or passages of the source.

B1: α-Cobratoxin: α-neurotoxin, peptide toxin from elapid venom (protein)
chain: IRCFITPDITSKDCPNGHVCYTKTWCDAFCSIRGKRVDLGCAATCPTVKTGVDIQCCSTDNCNPFPTRKRP

Experiments:
Lymnaea AChBP [1] = target: T1, Lymnaea AChBP (Lymnaea stagnalis, UniProt P58154); experiment: biochemical; assay type: binding
Aplysia AChBP [2] = target: T2, Aplysia AChBP (Aplysia californica, UniProt Q8WSF8); experiment: biochemical; assay type: binding
T2 sequence (Q8WSF8 18-236): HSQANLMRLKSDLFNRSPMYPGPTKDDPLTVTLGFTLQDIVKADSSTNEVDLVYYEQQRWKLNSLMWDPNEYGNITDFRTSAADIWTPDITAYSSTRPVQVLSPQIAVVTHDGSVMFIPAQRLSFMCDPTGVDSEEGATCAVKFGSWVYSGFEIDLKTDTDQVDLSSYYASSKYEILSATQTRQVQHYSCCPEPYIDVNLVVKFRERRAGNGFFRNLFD

Aplysia AChBP [3] = target: T2, Aplysia AChBP; experiment: biochemical; assay type: binding; remark: listed apart in the source
Lymnaea AChBP [4] = target: T1, Lymnaea AChBP; conditions: read-out: Lymnaea Kd; cited from earlier work
Target sequence in this assay (P58154 20-229 limits assumed): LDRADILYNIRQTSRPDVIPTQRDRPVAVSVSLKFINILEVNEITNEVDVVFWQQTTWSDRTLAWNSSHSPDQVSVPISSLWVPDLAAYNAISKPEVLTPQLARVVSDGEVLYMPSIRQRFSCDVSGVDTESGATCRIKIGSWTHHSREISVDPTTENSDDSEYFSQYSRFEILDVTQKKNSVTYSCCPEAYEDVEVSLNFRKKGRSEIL

Lymnaea AChBP [5] = target: T1, Lymnaea AChBP; experiment: biochemical; assay type: binding; remark: listed apart in the source
Target sequence in this assay (P58154 20-229 limits assumed): as above

Lymnaea AChBP [6] = target: T1, Lymnaea AChBP; assay type: binding
Target sequence in this assay (P58154 20-229 limits assumed): as above

| Molecule | k1 (Lymnaea AChBP [1]) | k−1 (Lymnaea AChBP [1]) | Kd (Lymnaea AChBP [1]; read-out: Kd) | Kd Ratio L/A (Aplysia AChBP [2]) | k1 Lymnaea (Lymnaea AChBP [1]) | k−1 Lymnaea (Lymnaea AChBP [1]) | k1 Aplysia (Aplysia AChBP [2]) | k−1 Aplysia (Aplysia AChBP [2]) | Kd (Aplysia AChBP [3]) | change of tryptophan fluorescence on binding, A-AChBP (Aplysia AChBP [3]) | Kd (Lymnaea AChBP [1]) | other results |
| --- | --- | --- | --- | --- | --- | --- | --- | --- | --- | --- | --- | --- |
| 5-Dimethylaminonaphthylsulfonamidoethyltrimethylammonium [Dansyl-C2-choline] | 2.1e+08 M⁻¹ s⁻¹ | 2.9 s⁻¹ | 14 nM |  |  |  |  |  |  |  |  |  |
| 5-Dimethylaminonaphthylsulfonamidohexyltrimethylammonium [Dansyl-C6-choline] | 1.3e+08 M⁻¹ s⁻¹ | 7.6 s⁻¹ | 58 nM | 0.069 |  |  |  |  |  |  |  | Kd (Aplysia AChBP [3]; read-out: Aplysia Kd): 1600 nM; Kd (Lymnaea AChBP [4]): 110 nM |
| CN1CCCC1c1cccnc1 (single isomer, unassigned; (-)) [(−)-Nicotine] | 1.5e+08 M⁻¹ s⁻¹ | 5.7 s⁻¹ |  |  | 1.5e+08 M⁻¹ s⁻¹ | 5.7 s⁻¹ | 2.3e+08 M⁻¹ s⁻¹ | 49 s⁻¹ | 245 nM | markedly quenched fluorescence |  | change of tryptophan fluorescence on binding, L-AChBP (Lymnaea AChBP [5]): markedly quenched fluorescence |
| CC(=O)OCC[N+](C)(C)C [Acetylcholine] |  |  |  |  |  |  |  |  | 33000 nM |  |  |  |
| C[N+](C)(C)CCOC(N)=O [Carbachol] |  |  |  | 0.023 |  |  |  |  | 240000 nM | enhanced fluorescence emission |  | Kd (Lymnaea AChBP [5]): 5600 nM |
| C[N+](C)(C)CCCCCCCCCC[N+](C)(C)C [Decamethonium] | 3.2 ± 0.17 ×10^8 M^−1 s^−1 | 120 ± 17 s⁻¹ |  |  |  |  |  |  |  |  | 380 nM |  |
| Clc1ccc(C2CC3CCC2N3)cn1 (stereo not shown) [Epibatidine] | 1.7 ± 0.26 ×10^8 M^−1 s^−1 | 0.027 ± 0.037 s⁻¹ |  | 0.011 | 1.7e+08 M⁻¹ s⁻¹ | 0.027 s⁻¹ | 2.5e+08 M⁻¹ s⁻¹ | 3.4 s⁻¹ |  | markedly quenched fluorescence | 0.16 nM | Kd (Aplysia AChBP [2]): 14 nM; change of tryptophan fluorescence on binding, L-AChBP (Lymnaea AChBP [5]): markedly quenched fluorescence; quenching of the intrinsic tryptophan fluorescence (Lymnaea AChBP [6]): about 50% |
| CC[N+](CC)(CC)CCOc1cccc(OCC[N+](CC)(CC)CC)c1OCC[N+](CC)(CC)CC [Gallamine] | 2.5 ± 0.14 ×10^8 M^−1 s^−1 | 36 ± 6.5 s⁻¹ |  | 1.2 | 2.5e+08 M⁻¹ s⁻¹ | 36 s⁻¹ | 2.5e+08 M⁻¹ s⁻¹ | 65 s⁻¹ | 120 nM | enhanced fluorescence emission | 140 nM | change of tryptophan fluorescence on binding, Lymnaea AChBP (Example 1) (Lymnaea AChBP [1]): enhancement of the tryptophan fluorescence; also recorded: increase in fluorescence; change of tryptophan fluorescence on binding, L-AChBP (Lymnaea AChBP [5]): enhanced tryptophan fluorescence |
| CCN1C[C@]2(COC(=O)c3ccccc3N3C(=O)C[C@H](C)C3=O)CC[C@H](OC)[C@@]34[C@@H]5C[C@H]6[C@H](OC)[C@@H]5[C@](O)(C[C@@H]6OC)[C@@](O)([C@@H](OC)[C@H]23)[C@@H]14 [Methyllycaconitine] |  |  |  | 0.14 | 1.3e+07 M⁻¹ s⁻¹ | 0.005 s⁻¹ | 4.4e+07 M⁻¹ s⁻¹ | 0.12 s⁻¹ |  |  |  | Kd (Aplysia AChBP [2]): 2.8 nM; Kd (Lymnaea AChBP [4]): 0.41 nM |
| O=C1C[C@@H]2OCC=C3CN4CC[C@]56c7ccccc7N1[C@H]5[C@H]2[C@H]3C[C@H]46 [Strychnine] |  |  |  |  |  |  |  |  |  |  | 23 nM | Kd (Aplysia AChBP [2]): 15 nM |
| COc1cc2c3cc1Oc1cc(ccc1O)C[C@@H]1c4c(cc(OC)c(O)c4Oc4ccc(cc4)C[C@@H]3N(C)CC2)CC[N+]1(C)C [d-Tubocurarine] | 2e+08 M⁻¹ s⁻¹ | 30 s⁻¹ | 150 nM |  |  |  |  |  |  |  |  |  |
| α-Bungarotoxin | 0.0097 ± 0.002 ×10^8 M^−1 s^−1 | 0.0017 ± 0.0003 s⁻¹ | 1.8 nM | 0.0071 | 900000 M⁻¹ s⁻¹ | 0.001 s⁻¹ | 1e+06 M⁻¹ s⁻¹ | 0.32 s⁻¹ |  |  |  | rate of association slower than for epibatidine (Lymnaea AChBP [1]): ~200 fold; unimolecular step k2 (slow phase limiting value) (Lymnaea AChBP [1]): 0.34 s⁻¹; lower affinity for A-AChBP than for L-AChBP (Aplysia AChBP [3]): 100 fold; Kd (Aplysia AChBP [3]; read-out: Aplysia Kd): 250 nM; quenching of the intrinsic tryptophan fluorescence (Lymnaea AChBP [6]): 15-20%; Kd (Lymnaea AChBP [4]): 1.8 nM |
| B1 | 3.3e+06 M⁻¹ s⁻¹ | 0.011 s⁻¹ | 3.2 nM |  |  |  |  |  |  |  |  |  |
